These are literature values, as cited in patent publication US4749649A, “Microbial Δ1-dehydrogenation process using a scavenger of toxic oxygen” (The Upjohn Company, priority 1983, dated 1988).

For data set [1] the following is noted: compared with hydrocortisone and cortisone.
The conditions of data set [2]: compared with hydrocortisone and cortisone. This is another data set of the same source.
Another data set concerns steroid-1-dehydrogenase. Conditions: Pseudomonas testosteroni; potential toxicity by superoxide and peroxide formation.

In the case of `C[C@]12C=CC(=O)C=C1CC[C@@H]1[C@@H]2C(=O)C[C@@]2(C)[C@H]1CC[C@]2(O)C(=O)CO` [prednisone], in data set [1], the drug-induced salt retention entry is recorded as “less drug-induced salt retention”.

Regarding `C[C@]12C=CC(=O)C=C1CC[C@@H]1[C@@H]2[C@@H](O)C[C@@]2(C)[C@H]1CC[C@]2(O)C(=O)CO` [prednisolone], the potency entry in data set [2] is “enhanced potency”. Also, in data set [1], the drug-induced salt retention result was “less drug-induced salt retention”.

Take `C[n+]1c2ccccc2nc2ccccc21` [PMS, phenazinemethosulfate]: the “1-dehydrogenase activity in the presence of PMS” value with steroid-1-dehydrogenase is “essentially unaffected”.
